ChEMBL document CHEMBL6087460, “Generating a Peptide Library Using the Repeats of Amino Acid Scaffolds Created by Sliding the Framework of a 7-mer Human Chemerin Segment and Discovery of Potent Antibacterial and Antimycobacterial Peptides” (J Med Chem, 2025)
The source made the active and inactive calls. The rule behind the calls is not given here. Where a SMILES comes first, the peptide text is derived from it.

Columns and labels:
[1] = Drug localization in cytoplasm of Mycobacterium smegmatis at 1 ug/ml by confocal microscopy; type: ADME, subcellular; conditions: mycolicibacterium smegmatis; dose 1 µg/ml
[2] = Drug localization in cell membrane of Escherichia coli ATCC 25922 at 3 times MIC by confocal microscopy; type: ADME, cell membranes
Escherichia coli [3] = assay: Disruption of plasma membrane integrity in Escherichia coli ATCC 25922 by SYTOX-Green uptake assay; type: functional, organism-based
[4] = Hemolytic activity in human RBC measured after 40 mins by absorbance based assay; type: toxicity, cell-based, Erythrocyte; conditions: human red blood cells
Staphylococcus aureus [5] = assay: Antibacterial activity against Staphylococcus aureus ATCC 25923 incubated for 16 to 18 hrs in presence of 10 percent human serum by broth dilution assay; type: functional; conditions: time 16-18 hrs
Staphylococcus aureus [6] = assay: Antibacterial activity against methicillin-resistant Staphylococcus aureus 33591 incubated for 16 to 18 hrs by broth dilution assay; type: functional; conditions: time 16-18 hrs
Escherichia coli [7] = assay: Antibacterial activity against Escherichia coli ATCC 25922 incubated for 16 to 18 hrs by broth dilution assay; type: functional; conditions: time 16-18 hrs
Staphylococcus aureus [8] = assay: Antibacterial activity against methicillin-resistant Staphylococcus aureus BAA-44 incubated for 16 to 18 hrs by broth dilution assay; type: functional; conditions: time 16-18 hrs
[9] = Cytotoxicity against rat L6 cells assessed as cell viability at 100 uM incubated for 24 hrs by MTT assay relative to control; type: toxicity, cell-based; conditions: L6 cells, read-out: Activity
Pseudomonas aeruginosa = assay: Antibacterial activity against Pseudomonas aeruginosa ATCC BAA-427 incubated for 16 to 18 hrs by broth dilution assay; type: functional; conditions: time 16-18 hrs
Staphylococcus aureus [10] = assay: Disruption of plasma membrane integrity in Staphylococcus aureus ATCC 25923 by SYTOX-Green uptake assay; type: functional, organism-based
Escherichia coli [11] = assay: Disruption of membrane integrity in Escherichia coli ATCC 25922 by PI staining based analysis; type: functional, organism-based
Escherichia coli [12] = assay: Induction of cell membrane damage in Escherichia coli ATCC 25922 at 3 times MIC incubated for 60 mins by SEM analysis; type: functional, organism-based
[13] = Hemolytic activity in human RBC assessed as disruption of membrane integrity by Alexa Fluor-Annexin V staining based analysis; type: toxicity, cell-based; conditions: erythrocyte
Staphylococcus aureus [14] = assay: Induction of cell membrane damage in Staphylococcus aureus ATCC 25923 at 3 times MIC incubated for 60 mins by SEM analysis; type: functional, organism-based
Klebsiella pneumoniae = assay: Antibacterial activity against Klebsiella pneumoniae ATCC 27736 incubated for 16 to 18 hrs by broth dilution assay; type: functional; conditions: time 16-18 hrs
Staphylococcus aureus [15] = assay: Disruption of membrane integrity in Staphylococcus aureus ATCC 25923 by PI staining based analysis; type: functional, organism-based
Bacillus subtilis = assay: Antibacterial activity against Bacillus subtilis 6633 incubated for 16 to 18 hrs by broth dilution assay; type: functional; conditions: time 16-18 hrs
[16] = Retention time of compound by RP-HPLC method; type: physicochemical
Escherichia coli [17] = assay: Induction of membrane depolarization in Escherichia coli ATCC 25922 by diSC3-5 dye based analysis; type: functional, organism-based
Staphylococcus aureus [18] = assay: Bactericidal activity against Staphylococcus aureus ATCC 25923 incubated for 16 to 18 hrs; type: functional; conditions: time 16-18 hrs
Staphylococcus aureus [19] = assay: Induction of membrane depolarization in Staphylococcus aureus ATCC 25923 by diSC3-5 dye based analysis; type: functional, organism-based
Escherichia coli [20] = assay: Bactericidal activity against Escherichia coli ATCC 25922 incubated for 16 to 18 hrs; type: functional; conditions: time 16-18 hrs
Escherichia coli [21] = assay: Bactericidal activity against Escherichia coli ATCC 25922 at MIC incubated for about 100 mins by time kill assay relative to control; type: functional; conditions: 1.667 h
Staphylococcus aureus [22] = assay: Bactericidal activity against Staphylococcus aureus ATCC 25923 at MIC incubated for about 135 mins by time kill assay relative to control; type: functional; conditions: 2.25 h
[23] = system: Mycolicibacterium smegmatis; assay: Antitubercular activity against Mycobacterium smegmatis incubated for 24 hrs by rezasurin dye based assay; type: functional
[24] = Cytotoxicity against mouse 3T3-L1 cells assessed as cell viability at 100 uM incubated for 24 hrs by MTT assay relative to control; type: toxicity, cell-based; conditions: 3T3-L1 cells, read-out: Activity
Staphylococcus aureus [25] = assay: Antibacterial activity against Staphylococcus aureus ATCC 25923 incubated for 16 to 18 hrs by broth dilution assay; type: functional; conditions: time 16-18 hrs
Escherichia coli [26] = assay: Antibacterial activity against Escherichia coli ATCC 25922 incubated for 16 to 18 hrs in presence of 10 percent human serum by broth dilution assay; type: functional; conditions: time 16-18 hrs

CC(C)C[C@H](NC(=O)[C@H](CCCNC(=N)N)NC(=O)CNC(=O)[C@@H](NC(=O)[C@H](CC(C)C)NC(=O)[C@H](CCCNC(=N)N)NC(=O)CNC(=O)[C@@H](NC(=O)[C@H](CC(C)C)NC(=O)[C@H](CCCNC(=N)N)NC(=O)CNC(=O)[C@@H](NC(=O)[C@H](CC(C)C)NC(=O)[C@H](CCCNC(=N)N)NC(=O)CNC(=O)c1cc(C(=O)O)ccc1-c1c2ccc(=[N+](C)C)cc-2oc2cc(N(C)C)ccc12)C(C)C)C(C)C)C(C)C)C(=O)N[C@H](C(=O)O)C(C)C.[Cl-] (HELM PEPTIDE1{[CN(C)c1ccc2c(-c3ccc(C(=O)O)cc3C(=O)[*:2])c3ccc(=[N+](C)C)cc-3oc2c1].G.R.L.V.G.R.L.V.G.R.L.V.G.R.L.V}$$$$V2.0)
Drug uptake [1]: Active
Drug uptake [2]: Active

H-GRLGRLGRLGRLGRL-OH
Activity (Escherichia coli [3]): inactive
HC50 at 40 min [4]: 2 mM
MIC (Staphylococcus aureus [5]): 15.2 µM
MIC (Staphylococcus aureus [6]): 15.2 µM
MIC (Escherichia coli [7]): 3.8 µM
MIC (Staphylococcus aureus [8]): 15.2 µM
viability at 24 h, 100 µM [9]: > 80%
MIC (Pseudomonas aeruginosa): 15.2 µM
Activity (Staphylococcus aureus [10]): inactive
Activity (Escherichia coli [11]): inactive
Activity (Escherichia coli [12]): inactive
Activity [13]: Non-toxic
Activity (Staphylococcus aureus [14]): inactive
MIC (Klebsiella pneumoniae): 60.6 µM
Activity (Staphylococcus aureus [15]): inactive
MIC (Bacillus subtilis): 15.2 µM
Retention_time [16]: 16.17 min
Activity (Escherichia coli [17]): inactive
MBC (Staphylococcus aureus [18]): 7.6 µM
Activity (Staphylococcus aureus [19]): inactive
MBC (Escherichia coli [20]): 15.2 µM
Activity (Escherichia coli [21]): 100%
Activity (Staphylococcus aureus [22]): 100%
MIC [23]: 5 µM
viability at 24 h, 100 µM [24]: > 80%
MIC (Staphylococcus aureus [25]): 3.8 µM
MIC (Escherichia coli [26]): 15.2 µM
